# Source: US20170368082A1, “FORMULATIONS OF BRINCIDOFOVIR” (priority 2016, published 2017)
# Read-outs that look alike come from different tables or passages of the source.
# Experiment: Phase 2 toxicokinetics of brincidofovir and cidofovir in plasma
# Assay type: in vivo, Sprague-Dawley CD rats
# Settings: for Cmax/Dose / Tlast / AUClast/Dose / AUC(0-t) / Cmax / Tmax: brincidofovir in plasma; for concentration at 1 h / concentration at 2 h / concentration at 8 h / concentration at 24 h / concentration at 0 h / AUC(0-t) / Cmax / Tmax: female, Sprague-Dawley CD, rat, plasma; for concentration at 1 h / concentration at 2 h / concentration at 8 h / concentration at 24 h / concentration at 0 h: intravenous; for AUC(0-t) / Cmax / Tmax: iv; for Tmax: read-out: Tmax
# Protocol: Plasma samples (108) were collected 2 hours following the initiation of dosing on Day 1 and Day 7 (Group 1), or at 1, 2, 8, and 24 hours following the initiation of dosing on Day 1, and prior to administration and at 2, 8, and 24 hours following the initiation of dosing on Day 7 (Groups 2 and 3), and analyzed to determine the concentrations of brincidofovir and the metabolite, cidofovir), by LC/MS/MS.
# Approximately 0.4 mL of whole blood was obtained via the tail vein from each animal at each time point. Animals were not fasted prior to blood collection. Blood was collected into tubes containing K2EDTA anticoagulant and placed on wet ice in an upright position, per facility SOP prior to processing. Plasma was separated by centrifugation (10 minutes at approximately 2000 g, at approximately 2-8° C.). Approximately 0.10 mL of plasma was transferred into a single cryotube appropriately labeled with study number, animal number, time point, date of sampling and sample type. Remaining plasma was transferred into a second cryotube and retained as a backup sample. Plasma frozen at approximately −80±10° C. within approximately 2 hours after collection of each blood sample until analysis. Animals were euthanized (CO2 inhalation) after the final blood collection.
# In general, TK parameters were estimated using mean plasma concentrations of brincidofovir and cidofovir derived from the composite blood sampling design using Phoenix WinNonLin (V 6.3).
# A composite blood sampling design was used such that each rat was sampled twice per sampling day. Blood was collected via tail vein from unanesthetized animals into tubes containing anticoagulant and placed on wet ice in an upright position. Animals were not fasted prior to blood collection. Plasma was separated by centrifugation (for 10 minutes at approximately 2000 g, at approximately 2-8° C.), and transferred into individually labeled cryotubes. All cryotubes containing the collected plasma samples were appropriately labeled as to study number, animal number, time point, date of sampling and sample type. All plasma samples were obtained and frozen at approximately −80° C. (±10° C.) within approximately 2 hours after collection of each blood sample until analysis.
# Rat plasma bioanalysis was conducted by Pyxant Laboratories. Plasma samples were analyzed for concentrations of brincidofovir and cidofovir using a method based upon protein precipitation extraction followed by LC-MS/MS analysis; calibration ranges for brincidofovir and cidofovir were 1.00-1500 ng/mL and 5.00-750 ng/mL, respectively, (Pyxant study number 3025) for a 50 μL aliquot of rat plasma. Sample analysis for ISR was not performed as part of this non-GLP study.
# For the generation of Mean Profiles, all sample concentrations that were below the limit of quantitation (BLQ) were set to 0.
# All pharmacokinetic parameter estimates were completed using a Non-Compartmental Model (Model 200-202 for IV infusion administration). The AUClast and AUCinf were calculated using the linear up log down trapezoidal rule.
# [1] = 1 mg/kg 2-hour IV infusion, Male rats, Day 1
# [2] = 1 mg/kg 2-hour IV infusion, Male rats, Day 7
# [3] = 15 mg/kg 2-hour IV infusion, Female rats, Day 1
# [4] = 15 mg/kg 2-hour IV infusion, Female rats, Day 7
# [5] = 15 mg/kg 2-hour IV infusion, Male rats, Day 1
# [6] = 15 mg/kg 2-hour IV infusion, Male rats, Day 7
# [7] = 1 mg/kg, 1 mg/kg 2-hour IV infusion, Female rats, Day 1
# [8] = 1 mg/kg, 1 mg/kg 2-hour IV infusion, Female rats, Day 7
structure (smiles),measurement,setting,value
CCCCCCCCCCCCCCCCOCCCOP(=O)(O)CO[C@H](CO)Cn1ccc(N)nc1=O [Brincidofovir],Cmax/Dose,[1],235 (ng/mL)/(mg/kg)
same,Tlast,[1],2 h
same,Cmax/Dose,[2],208 (ng/mL)/(mg/kg)
same,Tlast,[2],2 h
same,AUClast/Dose,[3],491 (h*ng/mL)/(mg/kg)
same,Cmax/Dose,[3],231 (ng/mL)/(mg/kg)
same,Tlast,[3],24 h
same,AUClast/Dose,[4],228 (h*ng/mL)/(mg/kg)
same,Cmax/Dose,[4],110 (ng/mL)/(mg/kg)
same,Tlast,[4],24 h
same,AUClast/Dose,[5],585 (h*ng/mL)/(mg/kg)
same,Cmax/Dose,[5],291 (ng/mL)/(mg/kg)
same,Tlast,[5],24 h
same,AUClast/Dose,[6],273 (h*ng/mL)/(mg/kg)
same,Cmax/Dose,[6],127 (ng/mL)/(mg/kg)
same,Tlast,[6],24 h
same,concentration at 1 h,"1 mg/kg, brincidofovir 1 mg/kg, Female, Day 1, 1 h, read-out: brincidofovir Imputed Mean Concentration (IMC)",137 ng/mL
same,concentration at 1 h,"1 mg/kg, brincidofovir 1 mg/kg, Female, Day 1, 1 h, read-out: brincidofovir Mean Concentration (MC)",137 ng/mL
same,concentration at 2 h,"1 mg/kg, brincidofovir 1 mg/kg, Female, Day 1, 2 h, read-out: brincidofovir Imputed Mean Concentration (IMC)",191 ng/mL
same,concentration at 2 h,"1 mg/kg, brincidofovir 1 mg/kg, Female, Day 1, 2 h, read-out: brincidofovir Mean Concentration (MC)",191 ng/mL
same,concentration at 8 h,"1 mg/kg, brincidofovir 1 mg/kg, Female, Day 1, 8 h, read-out: brincidofovir Imputed Mean Concentration (IMC)",1.25 ng/mL
same,concentration at 8 h,"1 mg/kg, brincidofovir 1 mg/kg, Female, Day 1, 8 h, read-out: brincidofovir Mean Concentration (MC)",1.25 ng/mL
same,concentration at 24 h,"1 mg/kg, brincidofovir 1 mg/kg, Female, Day 1, 24 h, read-out: brincidofovir Mean Concentration (MC)",0 ng/mL
same,concentration at 0 h,"1 mg/kg, brincidofovir 1 mg/kg, Female, Day 7, 0 h, read-out: brincidofovir Imputed Mean Concentration (IMC)",0 ng/mL
same,concentration at 0 h,"1 mg/kg, brincidofovir 1 mg/kg, Female, Day 7, 0 h, read-out: brincidofovir Mean Concentration (MC)",0 ng/mL
same,concentration at 2 h,"1 mg/kg, brincidofovir 1 mg/kg, Female, Day 7, 2 h, read-out: brincidofovir Imputed Mean Concentration (IMC)",95.4 ng/mL
same,concentration at 2 h,"1 mg/kg, brincidofovir 1 mg/kg, Female, Day 7, 2 h, read-out: brincidofovir Mean Concentration (MC)",95.4 ng/mL
same,concentration at 8 h,"1 mg/kg, brincidofovir 1 mg/kg, Female, Day 7, 8 h, read-out: brincidofovir Imputed Mean Concentration (IMC)",2.19 ng/mL
same,concentration at 8 h,"1 mg/kg, brincidofovir 1 mg/kg, Female, Day 7, 8 h, read-out: brincidofovir Mean Concentration (MC)",2.19 ng/mL
same,concentration at 1 h,"1 mg/kg, brincidofovir 1 mg/kg 2-h IV infusion, female rats, Day 1, 1 h, BLQ imputed as zero, read-out: Imputed Concentration, Mean",137 ng/mL
same,concentration at 1 h,"1 mg/kg, brincidofovir 1 mg/kg 2-h IV infusion, female rats, Day 1, 1 h, BLQ imputed as zero, read-out: Imputed Concentration, individual animals",109 ng/mL
same,concentration at 2 h,"1 mg/kg, brincidofovir 1 mg/kg 2-h IV infusion, female rats, Day 1, 2 h, BLQ imputed as zero, read-out: Imputed Concentration, Mean",191 ng/mL
same,concentration at 2 h,"1 mg/kg, brincidofovir 1 mg/kg 2-h IV infusion, female rats, Day 1, 2 h, BLQ imputed as zero, read-out: Imputed Concentration, individual animals",253 ng/mL
same,concentration at 8 h,"1 mg/kg, brincidofovir 1 mg/kg 2-h IV infusion, female rats, Day 1, 8 h, BLQ imputed as zero, read-out: Imputed Concentration, Mean",1.25 ng/mL
same,concentration at 24 h,"1 mg/kg, brincidofovir 1 mg/kg 2-h IV infusion, female rats, Day 1, 24 h, BLQ imputed as zero, read-out: Imputed Concentration, Mean",0 ng/mL
same,concentration at 24 h,"1 mg/kg, brincidofovir 1 mg/kg 2-h IV infusion, female rats, Day 1, 24 h, BLQ imputed as zero, read-out: Imputed Concentration, individual animals",0 ng/mL
same,concentration at 0 h,"1 mg/kg, brincidofovir 1 mg/kg 2-h IV infusion, female rats, Day 7, 0 h, BLQ imputed as zero, read-out: Imputed Concentration, individual animals",0 ng/mL
same,concentration at 2 h,"15 mg/kg, 15 mg/kg, female rats, Day 1, 2 h, read-out: IC (Imputed Concentration), individual animals",2460 ng/mL
same,concentration at 8 h,"15 mg/kg, 15 mg/kg, female rats, Day 1, 8 h, read-out: C (Concentration), individual animals",5.05 ng/mL
same,concentration at 8 h,"15 mg/kg, 15 mg/kg, female rats, Day 1, 8 h, read-out: IC (Imputed Concentration), individual animals",5.05 ng/mL
same,concentration at 24 h,"15 mg/kg, 15 mg/kg, female rats, Day 1, 24 h, read-out: C (Concentration), individual animals",2.32 ng/mL
same,concentration at 24 h,"15 mg/kg, 15 mg/kg, female rats, Day 1, 24 h, read-out: IC (Imputed Concentration), individual animals",2.32 ng/mL
same,concentration at 8 h,"15 mg/kg, 15 mg/kg, female rats, Day 7, 8 h, read-out: C (Concentration), individual animals",5.32 ng/mL
same,concentration at 8 h,"15 mg/kg, 15 mg/kg, female rats, Day 7, 8 h, read-out: IC (Imputed Concentration), individual animals",5.32 ng/mL
same,concentration at 24 h,"15 mg/kg, 15 mg/kg, female rats, Day 7, 24 h, read-out: C (Concentration), individual animals",2.37 ng/mL
same,AUC(0-t),[7],459 ng·h/mL
same,Cmax,[7],191 ng/mL
same,Tmax,[7],2 h
same,AUC(0-t),[8],244 ng·h/mL
same,Cmax,[8],95.4 ng/mL
same,Tmax,[8],2 h
